# Experimental data reported in US10221174B2, “N-(phenylsulfonyl)benzamides and related compounds as BCL-2 inhibitors” (THE REGENTS OF THE UNIVERSITY OF MICHIGAN, priority 2016, dated 2019).
# Read-outs that look alike come from different tables or passages of the source.
# Tests used:
# RS4;11 cells = experiment: RS4;11 cell viability, CCK-8 assay; format: cell-based; details: Homo sapiens, RS4-11, 96 h, CCK-8, 4 days, read-out: RS4, 11 IC50 (Bcl-2 dependent)
# Protocol: RS4;11 cells were obtained from American Type Culture Collection (ATCC). They were used within three months of thawing fresh vials. Cells were maintained in the recommended culture medium with 10% FBS at 37° C. and an atmosphere of 5% CO2.
# The effect of representative Compounds of the Disclosure on cell viability was determined using Cell Counting Kit-8 (CCK-8) assay (Dojindo, Rockville, Md.) according to the manufacturer's instructions. 200 μL of a RS4;11 cell suspension (10000 cells/well) in culture medium were seeded into 96-well plates and cultured overnight. Each tested compound was serially diluted in culture medium, and 20 μL of the compound dilution was added to the corresponding well of the cell plate. After the addition of the tested compound, the cells were incubated at 37° C. in an atmosphere of 5% CO2 for 4 days. At the end of 4 days, 10 μL of CCK-8 solution was added to each well of the plate and incubated for 1-4 hours. The plates were read at 450 nm on the microplate spectrophotometer (Epoch2, BioTek). The readings were normalized to the vehicle cells, and the IC50 was calculated by nonlinear regression analysis using GraphPad Prism 5 software.
# Pharmacokinetics in rats = format: in vivo
# Protocol: The pharmacokinetics of ABT-199 and representative Compounds of the Disclosure were evaluated in rats at an IV dose of 2 mg/kg and an oral dose of 20 mg/kg.
# MV4;11 cell line = experiment: MV4;11 inhibition; format: cell-based
IC50 (RS4;11 cells),"IC50 (MV4;11 cell line; Homo sapiens, MV4-11)",Compound,further results
22 nM,–,"O=C(NS(=O)(=O)c1ccc(NC[C@@H]2COCCO2)c([N+](=O)[O-])c1)c1ccc(C2=CCN(CC3=C(c4ccc(Cl)cc4)CC4(CC3)COC4)CC2)cc1Oc1cnc2[nH]ccc2c1 [Cpd. No. 5, (R)-N-((4-(((1,4-dioxan-2-yl)methyl)amino)-3-nitrophenyl)sulfonyl)-2-((1H-pyrrolo[2,3-b]pyridin-5-yl)oxy)-4-(1-((6-(4-chlorophenyl)-2-oxaspiro[3.5]non-6-en-7-yl)methyl)-1,2,3,6-tetrahydropyridin-4-yl)benzamide]",–
–,–,"CC1(C)CCC(CN2CCN(c3ccc(C(=O)NS(=O)(=O)c4ccc(NCC5CCOCC5)c([N+](=O)[O-])c4)c(Oc4cnc5[nH]ccc5c4)c3)CC2)=C(c2ccc(Cl)cc2)C1 [ABT-199, Venetoclax, reference compound]","AUC0-∞ IV (Pharmacokinetics in rats; IV 2 mg/kg): 5446 n · gh/mL; AUC0-∞ PO (Pharmacokinetics in rats; oral 20 mg/kg): 20812 n · gh/mL; F(AUC0-t) (Pharmacokinetics in rats; oral 20 mg/kg vs IV 2 mg/kg): 38.2%; MRT inf (Pharmacokinetics in rats; rat, in vivo, IV 2 mg/kg): 1.23 h; AUC(0-t) (Pharmacokinetics in rats; rat, in vivo, IV 2 mg/kg, read-out: AUC0-t IV): 5440 ng·h/mL; clearance (Pharmacokinetics in rats; rat, in vivo, IV 2 mg/kg, read-out: CL (iv) (converted)): 6.57 mL/min/kg; Cmax (Pharmacokinetics in rats; rat, in vivo, IV 2 mg/kg, read-out: Cmax IV): 8740 ng/mL; Tmax (Pharmacokinetics in rats; rat, in vivo, IV 2 mg/kg, read-out: Tmax IV): 0.083 h; Vd (Pharmacokinetics in rats; rat, in vivo, IV 2 mg/kg, read-out: Vss (iv)): 0.496 L/kg; half-life (Pharmacokinetics in rats; rat, in vivo, IV 2 mg/kg, read-out: t1/2 IV (converted)): 4.32 h; AUC(0-t) (Pharmacokinetics in rats; rat, in vivo, oral 20 mg/kg, read-out: AUC0-t PO): 20800 ng·h/mL; Cmax (Pharmacokinetics in rats; rat, in vivo, oral 20 mg/kg, read-out: Cmax PO): 6000 ng/mL; Tmax (Pharmacokinetics in rats; rat, in vivo, oral 20 mg/kg, read-out: Tmax PO): 1.67 h; half-life (Pharmacokinetics in rats; rat, in vivo, oral 20 mg/kg, read-out: t1/2 PO (converted)): 3.22 h"
19 nM,22.5 nM,"O=C(NS(=O)(=O)c1ccc(NCC2CCOCC2)c([N+](=O)[O-])c1)c1ncc(N2CCN(CC3=C(c4ccc(Cl)cc4)CC4(CCC4)CC3)CC2)cc1Oc1cnc2[nH]ccc2c1 [compound 30, 3-((1H-pyrrolo[2,3-b]pyridin-5-yl)oxy)-5-(4-((6-(4-chlorophenyl)spiro[3.5]non-6-en-7-yl)methyl)piperazin-1-yl)-N-((3-nitro-4-(((tetrahydro-2H-pyran-4-yl)methyl)amino)phenyl)sulfonyl)picolinamide]",–
–,–,"O=C(NS(=O)(=O)c1ccc(NC[C@H]2COCCO2)c([N+](=O)[O-])c1)c1cc(F)c(N2CCN(CC3=C(c4ccc(Cl)cc4)CC4(CCC4)CC3)CC2)cc1Oc1cnc2[nH]ccc2c1 [compound 26, (S)-N-((4-(((1,4-dioxan-2-yl)methyl)amino)-3-nitrophenyl)sulfonyl)-2-((1H-pyrrolo[2,3-b]pyridin-5-yl)oxy)-4-(4-((6-(4-chlorophenyl)spiro[3.5]non-6-en-7-yl)methyl)piperazin-1-yl)-5-fluorobenzamide]",IC50 (MV4;11 cell line): 6710 nM
968 nM,1300 nM,"O=C(NS(=O)(=O)c1ccc(NC[C@H]2COCCO2)c([N+](=O)[O-])c1)c1ccc(N2CCN(CC3=C(c4ccc(Cl)cc4)CC4(CCC4)CC3)CC2)nc1Oc1cnc2[nH]ccc2c1 [compound 28, (S)-N-((4-(((1,4-dioxan-2-yl)methyl)amino)-3-nitrophenyl)sulfonyl)-2-((1H-pyrrolo[2,3-b]pyridin-5-yl)oxy)-6-(4-((6-(4-chlorophenyl)spiro[3.5]non-6-en-7-yl)methyl)piperazin-1-yl)nicotinamide]",–
7160 nM,–,"O=C(NS(=O)(=O)c1cc([N+](=O)[O-])c(NC[C@H]2COCCO2)cc1F)c1ccc(N2CCN(CC3=C(c4ccc(Cl)cc4)CC4(CCC4)CC3)CC2)cc1Oc1cnc2[nH]ccc2c1 [Cpd. No. 44, (S)-N-((4-(((1,4-dioxan-2-yl)methyl)amino)-2-fluoro-5-nitrophenyl)sulfonyl)-2-((1H-pyrrolo[2,3-b]pyridin-5-yl)oxy)-4-(4-((6-(4-chlorophenyl)spiro[3.5]non-6-en-7-yl)methyl)piperazin-1-yl)benzamide]",–
66 nM,103 nM,"O=C(NS(=O)(=O)C1=CC2C(=O)N(CC3CCOCC3)CC2C([N+](=O)[O-])=C1)c1ccc(N2CCN(CC3=C(c4ccc(Cl)cc4)CC4(CCC4)CC3)CC2)cc1Oc1cnc2[nH]ccc2c1 (stereo not shown) [compound 38, 2-((1H-pyrrolo[2,3-b]pyridin-5-yl)oxy)-4-(4-((6-(4-chlorophenyl)spiro[3.5]non-6-en-7-yl)methyl)piperazin-1-yl)-N-((7-nitro-3-oxo-2-((tetrahydro-2H-pyran-4-yl)methyl)-2,3,3a,7a-tetrahydro-1H-isoindol-5-yl)sulfonyl)benzamide]",–
111 nM,88.1 nM,"O=C(NS(=O)(=O)c1ccc(NCC2CCOCC2)c([N+](=O)[O-])c1)c1ccc(N2CCN(CC3=C(c4ccc(Cl)cc4)CC4(CCC4)CC3)CC2)c(F)c1Oc1cnc2[nH]ccc2c1 [compound 42, 2-((1H-pyrrolo[2,3-b]pyridin-5-yl)oxy)-4-(4-((6-(4-chlorophenyl)spiro[3.5]non-6-en-7-yl)methyl)piperazin-1-yl)-3-fluoro-N-((3-nitro-4-(((tetrahydro-2H-pyran-4-yl)methyl)amino)phenyl)sulfonyl)benzamide]",–
31 nM,–,"O=C(NS(=O)(=O)c1ccc(NC[C@H]2COCCO2)c([N+](=O)[O-])c1)c1cc(F)c(N2CCN(CC3=C(c4ccc(Cl)cc4)CC4(CCC4)CC3)CC2)cc1Oc1cnc2[nH]ccc2c1 [compound 39, (S)-N-((4-(((1,4-dioxan-2-yl)methyl)amino)-3-nitrophenyl)sulfonyl)-2-((1H-pyrrolo[2,3-b]pyridin-5-yl)oxy)-4-(4-((6-(4-chlorophenyl)spiro[3.5]non-6-en-7-yl)methyl)piperazin-1-yl)-5-fluorobenzamide]",IC50 (MV4;11 cell line): 33.7 nM
68 nM,154 nM,"COCCOCCNc1ccc(S(=O)(=O)NC(=O)c2cc(F)c(N3CCN(CC4=C(c5ccc(Cl)cc5)CC5(CCC5)CC4)CC3)cc2Oc2cnc3[nH]ccc3c2)cc1[N+](=O)[O-] [compound 37, 2-((1H-pyrrolo[2,3-b]pyridin-5-yl)oxy)-4-(4-((6-(4-chlorophenyl)spiro[3.5]non-6-en-7-yl)methyl)piperazin-1-yl)-5-fluoro-N-((4-((2-(2-methoxyethoxy)ethyl)amino)-3-nitrophenyl)sulfonyl)benzamide]",–
1380 nM,–,"O=C(NS(=O)(=O)c1ccc(NCC2CCOCC2)c([N+](=O)[O-])c1)c1ccc(N2CCN(CC3=C(c4ccc(Cl)cc4)CC4(CCC4)CC3)CC2)nc1Oc1cnc2[nH]ccc2c1 [compound 32, 2-((1H-pyrrolo[2,3-b]pyridin-5-yl)oxy)-6-(4-((6-(4-chlorophenyl)spiro[3.5]non-6-en-7-yl)methyl)piperazin-1-yl)-N-((3-nitro-4-(((tetrahydro-2H-pyran-4-yl)methyl)amino)phenyl)sulfonyl)nicotinamide]",–
–,243000 nM,"O=C(NS(=O)(=O)c1cc([N+](=O)[O-])n(CCC2CCOCC2)c1)c1ccc(N2CCN(CC3=C(c4ccc(Cl)cc4)CC4(CCC4)CC3)CC2)cc1Oc1cnc2[nH]ccc2c1 [compound 24, 2-((1H-pyrrolo[2,3-b]pyridin-5-yl)oxy)-4-(4-((6-(4-chlorophenyl)spiro[3.5]non-6-en-7-yl)methyl)piperazin-1-yl)-N-((5-nitro-1-(2-(tetrahydro-2H-pyran-4-yl)ethyl)-1H-pyrrol-3-yl)sulfonyl)benzamide]",–
28 nM,–,"O=C(NS(=O)(=O)c1ccc(NCC2CCOCC2)c([N+](=O)[O-])c1)c1ccc(C2=CCN(CC3=C(c4ccc(Cl)cc4)CC4(CC3)COC4)CC2)cc1Oc1cnc2[nH]ccc2c1 [compound 9, 2-((1H-pyrrolo[2,3-b]pyridin-5-yl)oxy)-4-(1-((6-(4-chlorophenyl)-2-oxaspiro[3.5]non-6-en-7-yl)methyl)-1,2,3,6-tetrahydropyridin-4-yl)-N-((3-nitro-4-(((tetrahydro-2H-pyran-4-yl)methyl)amino)phenyl)sulfonyl)benzamide]",–

Compound,IC50 (RS4;11 cells),"IC50 (MV4;11 cell line; Homo sapiens, MV4-11)",further results
"O=C(NS(=O)(=O)c1ccc(NC[C@@H]2COCCO2)c([N+](=O)[O-])c1)c1ccc(N2CCN(CC3=C(c4ccc(Cl)cc4)CC4(CC3)COC4)CC2)cc1Oc1cnc2[nH]ccc2c1 [compound 8, (R)-N-((4-(((1,4-dioxan-2-yl)methyl)amino)-3-nitrophenyl)sulfonyl)-2-((1H-pyrrolo[2,3-b]pyridin-5-yl)oxy)-4-(4-((6-(4-chlorophenyl)-2-oxaspiro[3.5]non-6-en-7-yl)methyl)piperazin-1-yl)benzamide]",3.7 nM,–,–
"O=C(NS(=O)(=O)c1ccc(NC[C@@H]2COCCO2)c([N+](=O)[O-])c1)c1ccc(N2CCN(CC3=C(c4ccc(Cl)cc4)CC4(CCC4)CC3)CC2)cc1Oc1cnc2[nH]ccc2c1 [compound 13, (R)-N-((4-(((1,4-dioxan-2-yl)methyl)amino)-3-nitrophenyl)sulfonyl)-2-((1H-pyrrolo[2,3-b]pyridin-5-yl)oxy)-4-(4-((6-(4-chlorophenyl)spiro[3.5]non-6-en-7-yl)methyl)piperazin-1-yl)benzamide]",2.8 nM,–,–
